From paper PMC11620503 (Antimicrobial Agents and Chemotherapy, 2024)
In brackets after ≈: the same amount, converted by molar mass. Where two headings read alike, the source gives them in different places.

Columns and labels:
[1] = test system: Metallo-carbapenemase-producing Enterobacterales (11); assay: MIC and MBC testing; type: cell-based; conditions: 11 metallo-carbapenemase-producing Enterobacterales; fixed BLI concentration (μg/mL) in label
[2] = test system: MEM-nonsusceptible Enterobacterales with serine-carbapenemases; assay: MIC, broth microdilution; type: cell-based; conditions: MEM-nonsusceptible Enterobacterales with serine-carbapenemases (58)
[3] = test system: serine-carbapenemase-producing isolates (Enterobacterales); assay: MIC, broth microdilution; type: cell-based; conditions: Enterobacterales with serine-carbapenemases (80)
[4] = test system: 96 P. aeruginosa; assay: MIC, broth microdilution; type: cell-based, Pseudomonas aeruginosa; conditions: Pseudomonas aeruginosa (96)
[5] = test system: 55 isolates of A. baumannii; assay: MIC, broth microdilution; type: cell-based, Acinetobacter baumannii; conditions: Acinetobacter baumannii (55)
[6] = test system: 207 Enterobacterales including carbapenem-resistant isolates; assay: MIC, broth microdilution; type: cell-based
[7] = test system: MBL-producing isolates (Enterobacterales); assay: MIC, broth microdilution; type: cell-based; conditions: Enterobacterales with metallo-carbapenemases (74), cefiderocol 73 isolates
[8] = test system: MEM-nonsusceptible Enterobacterales with metallo-carbapenemases; assay: MIC, broth microdilution; type: cell-based; conditions: MEM-nonsusceptible Enterobacterales with metallo-carbapenemases (55), cefiderocol 54 isolates
[9] = test system: MEM-, imipenem/relebactam-, and ceftolozane/tazobactam-nonsusceptible P. aeruginosa; assay: MIC, broth microdilution; type: cell-based, Pseudomonas aeruginosa; conditions: for CLSI MIC interpretation I (intermediate) / CLSI MIC interpretation R (resistant) / CLSI MIC interpretation S (susceptible): CLSI breakpoints, marked c: breakpoints for β-lactam alone; for MIC50 / MIC90: Pseudomonas aeruginosa, fixed concentration (μg/mL) in label; for MIC50: read-out: MIC50; for MIC90: read-out: MIC90
[10] = test system: Carbapenemase-producing A. baumannii (4); assay: MIC and MBC testing; type: cell-based, Acinetobacter baumannii; conditions: 4 carbapenemase-producing A. baumannii; fixed BLI concentration (μg/mL) in label; text: MBC/MIC ratios
[11] = test system: MEM-nonsusceptible Enterobacterales; assay: MIC, broth microdilution; type: cell-based; conditions: MEM-nonsusceptible Enterobacterales (127), cefiderocol 126 isolates
[12] = test system: Serine-carbapenemase-producing Enterobacterales (6); assay: MIC and MBC testing; type: cell-based; conditions: 6 serine-carbapenemase-producing Enterobacterales; fixed BLI concentration (μg/mL) in label
[13] = CLSI breakpoints, marked c: breakpoints for β-lactam alone, tigecycline: FDA breakpoints
[14] = fixed concentration (μg/mL) in label, read-out: MIC50
[15] = fixed concentration (μg/mL) in label, read-out: MIC90
[16] = CLSI breakpoints, marked c: breakpoints for β-lactam alone
[17] = All Enterobacterales (207), cefiderocol 205 isolates, CLSI breakpoints, marked c: breakpoints for β-lactam alone, tigecycline: FDA breakpoints
[18] = Ceftolozane/tazobactam-nonsusceptible Pseudomonas aeruginosa (45)
[19] = Imipenem/relebactam-nonsusceptible Pseudomonas aeruginosa (43)
[20] = MEM-nonsusceptible Pseudomonas aeruginosa (76)

CC(C)(O/N=C(\C(=O)N[C@@H]1C(=O)N2C(C(=O)[O-])=C(C[n+]3ccccc3)CS[C@H]12)c1csc(N)n1)C(=O)O [CAZ, ceftazidime]
MIC/MBC range [1]: ≥1
CLSI MIC interpretation I (intermediate) [2, 13]: 1.7%
CLSI MIC interpretation R (resistant) [2, 13]: 82.8%
CLSI MIC interpretation S (susceptible) [2, 13]: 15.5%
MIC50 [2, 14]: > 32 µg/mL
MIC90 [2, 15]: > 32 µg/mL
CLSI MIC interpretation I (intermediate) [3, 13]: 2.5%
CLSI MIC interpretation R (resistant) [3, 13]: 73.8%
CLSI MIC interpretation S (susceptible) [3, 13]: 23.8%
MIC50 [3, 14]: > 32 µg/mL
MIC90 [3, 15]: > 32 µg/mL
CLSI MIC interpretation I (intermediate) [4, 16]: 6.3%
CLSI MIC interpretation R (resistant) [4, 16]: 56.3%
CLSI MIC interpretation S (susceptible) [4, 16]: 37.5%
MIC50 [4, 14]: 32 µg/mL (≈ 58.5 µM)
MIC90 [4, 15]: > 32 µg/mL
CLSI MIC interpretation I (intermediate) [5, 16]: 1.8%
CLSI MIC interpretation R (resistant) [5, 16]: 94.5%
CLSI MIC interpretation S (susceptible) [5, 16]: 3.6%
MIC50 [5, 14]: > 32 µg/mL
MIC90 [5, 15]: > 32 µg/mL
CLSI MIC interpretation I (intermediate) [6, 17]: 2.4%
CLSI MIC interpretation R (resistant) [6, 17]: 82.1%
CLSI MIC interpretation S (susceptible) [6, 17]: 15.5%
MIC50 ([6]; read-out: MIC50): > 32 µg/mL
MIC90 ([6]; read-out: MIC90): > 32 µg/mL
CLSI MIC interpretation I (intermediate) [7, 13]: 0%
CLSI MIC interpretation R (resistant) [7, 13]: 98.6%
CLSI MIC interpretation S (susceptible) [7, 13]: 1.4%
MIC50 [7, 14]: > 32 µg/mL
MIC90 [7, 15]: > 32 µg/mL
CLSI MIC interpretation I (intermediate) [8, 13]: 0%
CLSI MIC interpretation R (resistant) [8, 13]: 98.2%
CLSI MIC interpretation S (susceptible) [8, 13]: 1.8%
MIC50 [8, 14]: > 32 µg/mL
MIC90 [8, 15]: > 32 µg/mL
CLSI MIC interpretation I (intermediate) [9, 18]: 4.4%
CLSI MIC interpretation R (resistant) [9, 18]: 93.3%
CLSI MIC interpretation S (susceptible) [9, 18]: 2.2%
CLSI MIC interpretation I (intermediate) [9, 19]: 7%
CLSI MIC interpretation R (resistant) [9, 19]: 83.7%
CLSI MIC interpretation S (susceptible) [9, 19]: 9.3%
CLSI MIC interpretation I (intermediate) [9, 20]: 6.6%
CLSI MIC interpretation R (resistant) [9, 20]: 68.4%
CLSI MIC interpretation S (susceptible) [9, 20]: 25%
MIC50 [9, 18]: > 32 µg/mL
MIC90 [9, 18]: > 32 µg/mL
MIC50 [9, 19]: > 32 µg/mL
MIC90 [9, 19]: > 32 µg/mL
MIC50 [9, 20]: 32 µg/mL (≈ 58.5 µM)
MIC90 [9, 20]: > 32 µg/mL
MBC/MIC ratio range [10]: 1–2
CLSI MIC interpretation I (intermediate) [11, 13]: 3.1%
CLSI MIC interpretation R (resistant) [11, 13]: 87.4%
CLSI MIC interpretation S (susceptible) [11, 13]: 9.4%
MIC50 [11, 14]: > 32 µg/mL
MIC90 [11, 15]: > 32 µg/mL
MIC/MBC range [12]: 1–256
